# In article PMC8275010 (Nature medicine, 2021):
# Where “and” joins values, the source holds several entries; their conditions need not be identical. Equal entries are not always repeated.
# Assays:
# [1] = Phase 2 trial NCT02101736: clinical pharmacokinetics; assay type: in vivo; conditions: 40 mg dose, human plasma
# [2] = test system: soluble AXL (sAXL); experiment: Mouse sAXL ELISA in plasma; assay type: in vivo; conditions: 12 weeks of treatment; vs WT mice or vehicle treated Nf1flox/flox;PostnCre mice
# [3] = assay type: in vivo, human; conditions: baseline to cycle 12
# [4] = test system: plexiform neurofibroma in Nf1^flox/flox;PostnCre mice; experiment: Plexiform neurofibroma tumor burden and histopathology in Nf1flox/flox; assay type: in vivo, mouse
# [5] = test system: AXL; experiment: pAXL western blot after GAS6 stimulation; assay type: cell-based; conditions: GAS6 200-250 ng/mL; cabozantinib 1000-2500 nM; Schwann cells, fibroblasts, ECFCs
# [6] = test system: NF1-related plexiform neurofibroma; assay type: in vivo, human
# [7] = target: T1, DDR2 (Mus musculus, UniProt Q62371); experiment: MIB/MS kinome profiling of sciatic nerve tumor tissue after in vivo treatment; conditions: 7 days of sustained treatment vs vehicle
# T1 sequence (Q62371 22-854): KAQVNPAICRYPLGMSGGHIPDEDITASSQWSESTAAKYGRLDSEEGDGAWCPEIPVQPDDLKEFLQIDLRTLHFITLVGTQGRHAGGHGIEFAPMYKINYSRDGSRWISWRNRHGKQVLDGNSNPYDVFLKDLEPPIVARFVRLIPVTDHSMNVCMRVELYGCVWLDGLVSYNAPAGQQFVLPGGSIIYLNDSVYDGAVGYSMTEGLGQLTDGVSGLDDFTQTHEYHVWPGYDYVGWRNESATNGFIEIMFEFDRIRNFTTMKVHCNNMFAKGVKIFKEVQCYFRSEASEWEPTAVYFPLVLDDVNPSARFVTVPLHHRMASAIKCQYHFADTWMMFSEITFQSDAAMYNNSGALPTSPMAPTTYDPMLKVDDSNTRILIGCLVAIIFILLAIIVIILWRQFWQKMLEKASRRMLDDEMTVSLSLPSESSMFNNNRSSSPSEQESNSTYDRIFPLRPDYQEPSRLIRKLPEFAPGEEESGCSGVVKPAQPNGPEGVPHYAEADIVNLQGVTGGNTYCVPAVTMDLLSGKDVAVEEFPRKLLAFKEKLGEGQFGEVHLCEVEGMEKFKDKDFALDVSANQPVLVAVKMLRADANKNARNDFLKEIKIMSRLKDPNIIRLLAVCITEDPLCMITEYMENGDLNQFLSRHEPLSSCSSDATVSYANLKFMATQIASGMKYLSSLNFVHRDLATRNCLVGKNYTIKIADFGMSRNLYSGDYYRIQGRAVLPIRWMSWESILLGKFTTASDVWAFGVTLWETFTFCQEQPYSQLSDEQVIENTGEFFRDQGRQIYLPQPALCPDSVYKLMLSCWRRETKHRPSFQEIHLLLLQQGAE
# [8] = test system: plexiform neurofibroma tumor tissues; experiment: TUNEL staining of nerve tissues of treated mice; assay type: in vivo, mouse
# [9] = assay type: in vivo, mouse
# [10] = test system: malignant peripheral nerve sheath tumor (MPNST) murine model; conditions: cabozantinib and mirdametinib; Nf1 and Trp53 compound mutations; cited from earlier work
# [11] = target: T2, AXL (Mus musculus, UniProt Q00993); experiment: MIB/MS kinome profiling of sciatic nerve tumor tissue after in vivo treatment; conditions: 7 days of sustained treatment vs vehicle
# T2 sequence (Q00993 19-888): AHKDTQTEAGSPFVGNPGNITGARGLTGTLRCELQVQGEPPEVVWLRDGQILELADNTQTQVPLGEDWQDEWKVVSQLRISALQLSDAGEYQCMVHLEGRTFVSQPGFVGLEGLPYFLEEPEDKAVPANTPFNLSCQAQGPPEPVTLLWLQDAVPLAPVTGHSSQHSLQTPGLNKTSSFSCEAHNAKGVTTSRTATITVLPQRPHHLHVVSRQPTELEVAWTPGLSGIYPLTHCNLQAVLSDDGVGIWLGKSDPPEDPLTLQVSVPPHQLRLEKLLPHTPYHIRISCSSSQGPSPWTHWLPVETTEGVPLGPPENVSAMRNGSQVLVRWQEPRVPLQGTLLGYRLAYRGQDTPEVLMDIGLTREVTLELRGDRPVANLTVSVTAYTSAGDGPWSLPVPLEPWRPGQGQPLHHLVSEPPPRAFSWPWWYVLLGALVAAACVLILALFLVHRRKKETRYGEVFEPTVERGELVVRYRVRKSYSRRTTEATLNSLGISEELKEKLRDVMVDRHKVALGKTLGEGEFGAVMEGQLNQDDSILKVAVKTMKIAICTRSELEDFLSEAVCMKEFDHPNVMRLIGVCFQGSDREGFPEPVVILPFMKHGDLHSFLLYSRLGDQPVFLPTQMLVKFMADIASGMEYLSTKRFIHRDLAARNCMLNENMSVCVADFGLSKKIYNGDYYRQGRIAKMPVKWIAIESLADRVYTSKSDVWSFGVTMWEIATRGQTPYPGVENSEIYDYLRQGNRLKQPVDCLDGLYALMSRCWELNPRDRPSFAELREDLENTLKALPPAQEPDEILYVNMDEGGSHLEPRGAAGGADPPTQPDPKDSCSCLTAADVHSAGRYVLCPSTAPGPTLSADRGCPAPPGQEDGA
# [12] = target: T3, DDR1 (Mus musculus, UniProt Q03146); experiment: as above; conditions: 7 days of sustained treatment vs vehicle
# T3 sequence (Q03146 20-911): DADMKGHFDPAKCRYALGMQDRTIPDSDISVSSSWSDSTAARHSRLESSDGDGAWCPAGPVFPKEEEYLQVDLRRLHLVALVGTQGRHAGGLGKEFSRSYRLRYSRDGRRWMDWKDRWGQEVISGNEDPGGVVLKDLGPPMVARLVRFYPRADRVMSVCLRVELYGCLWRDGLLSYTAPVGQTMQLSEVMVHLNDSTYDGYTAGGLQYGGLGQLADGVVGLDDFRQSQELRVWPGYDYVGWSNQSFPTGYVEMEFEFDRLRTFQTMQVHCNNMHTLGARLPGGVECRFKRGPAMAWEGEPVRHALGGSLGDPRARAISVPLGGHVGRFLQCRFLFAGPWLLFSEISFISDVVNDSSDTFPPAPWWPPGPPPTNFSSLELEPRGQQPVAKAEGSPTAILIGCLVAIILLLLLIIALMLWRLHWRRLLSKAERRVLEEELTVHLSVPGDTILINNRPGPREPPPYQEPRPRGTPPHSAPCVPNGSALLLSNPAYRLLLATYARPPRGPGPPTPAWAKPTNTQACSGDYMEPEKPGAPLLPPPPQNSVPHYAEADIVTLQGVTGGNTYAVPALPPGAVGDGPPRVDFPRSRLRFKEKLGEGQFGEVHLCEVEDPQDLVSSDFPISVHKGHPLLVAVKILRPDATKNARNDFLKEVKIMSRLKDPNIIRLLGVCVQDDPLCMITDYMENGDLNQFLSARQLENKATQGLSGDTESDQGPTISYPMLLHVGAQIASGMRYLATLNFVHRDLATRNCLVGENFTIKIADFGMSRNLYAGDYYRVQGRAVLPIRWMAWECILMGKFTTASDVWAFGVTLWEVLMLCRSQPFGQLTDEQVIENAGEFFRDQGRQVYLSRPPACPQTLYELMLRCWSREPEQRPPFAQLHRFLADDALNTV
# [13] = test system: human immortalized NF1−/− Schwann cells (iPNF95.6); experiment: Caspase 3/7 Glo apoptosis assay; assay type: cell-based; conditions: 24 hours; cabozantinib 39 nM to 5 μM; Navitoclax 1 μM positive control
# [14] = Phase 2 trial NCT02101736: safety and tolerability; design: species or system human; conditions: in vivo
# [15] = target: T2, AXL; experiment: AXL in tumor bearing nerve tissue of treated mice; assay type: in vivo; conditions: 12 weeks of treatment vs vehicle; IHC and western blot
# [16] = test system: plexiform neurofibroma; conditions: cited from earlier work
compound,measurement,setting,value
COc1cc2nccc(Oc3ccc(NC(=O)C4(C(=O)Nc5ccc(F)cc5)CC4)cc3)c2cc1OC [cabozantinib],dose-normalized mean trough level,[1]; Cycle 1 Day 15,16.5 ng/mL/mg
same,dose-normalized mean trough level,[1]; end of Cycle 1,20.7 ng/mL/mg
same,sAXL in plasma,[2],significantly elevated
same,mean decrease in worst tumor pain intensity,[3]; responder group,3 points
same,"reduction in reported tumor pain (NRS-11), LSM estimate","[3]; responders, p<0.0001",3.00
same,"change in PedsQL NF1 general pain and hurt scale, LSM estimate","[3]; total sample, p=0.0036, improvement",−14.98
same,reduction of number of PN per mouse,"[4]; 15mg/kg daily oral gavage, 12 weeks, relative to vehicle control",approximately 60%
same,reduction of mean volume of the proximal peripheral nerve roots,"[4]; 15mg/kg daily oral gavage, 12 weeks, vs vehicle",38%
same,mast cell infiltration,"[4]; toluidine blue stained sections, 12 weeks treatment vs vehicle, P = 0.1013",not significantly changed
same,"neoangiogenesis (blood vessels, CD31 immunohistochemistry)","[4]; treated tumors versus vehicle control, P < 0.0001",significant reduction
same,Gas6 mediated activation of AXL at the biochemical level (pAXL),[5],inhibited
same,disease progression while on study,[6]; 19 evaluable participants,No patient had disease progression
same,"partial response rate (PR, ≥20% reduction in target lesion volume by MRI)","[6]; 19 evaluable participants, 40 mg escalated to 60 mg once daily",42% and 42.1%
same,participants in whom maximal tumor response was not achieved until cycle 18,[6]; in vivo,4
same,participants in whom maximal tumor response was not achieved until cycle 24,[6]; in vivo,2
same,number of participants with PR,[6]; of the 19 participants evaluable for response,8
same,MIB binding of DDR2,[7],loss of MIB binding
same,apoptosis in nerve tissues (TUNEL staining),[8],negative for TUNEL staining
same,Tmax,"[9]; Nf1flox/flox;PostnCre, mouse, plasma, po, 15 mg/kg",2 h
same,maximum concentration in plasma,"[9]; single 15mg/kg oral gavage dose, Nf1flox/flox;PostnCre mice, plasma",6800 ng/mL
same,maximal concentration in nerve tissue,"[9]; single 15mg/kg oral gavage dose, nerve tissue",636 ng/g
same,tumor growth in MPNST murine model,[10],reduce growth
same,MIB binding of AXL,[11],loss of MIB binding
same,MIB binding of DDR1,[12],loss of MIB binding
same,apoptosis (caspase 3/7 activity),[13],does not induce apoptosis
same,participants requiring dose reductions while on study,[14],Seven
same,participants with grade 3 adverse events,[14],8
same,patients requiring dose reduction or discontinuation of therapy due to AEs,[14],Nine
same,AXL in treated tissues,[15],significant decline
O=C(NOC[C@H](O)CO)c1ccc(F)c(F)c1Nc1ccc(I)cc1F [mirdametinib],tumor growth in MPNST murine model,[10],reduce growth
CC1(C)CCC(c2ccc(Cl)cc2)=C(CN2CCN(c3ccc(C(=O)NS(=O)(=O)c4ccc(N[C@H](CCN5CCOCC5)CSc5ccccc5)c(S(=O)(=O)C(F)(F)F)c4)cc3)CC2)C1 [Navitoclax],apoptosis (caspase 3/7 activity),[13],robust increase
pegylated interferon alfa-2b,clinical outcome in PN,[16],only prolonged PN time to progression
Cn1cnc2c(F)c(Nc3ccc(Br)cc3Cl)c(C(=O)NOCCO)cc21 [selumetinib],partial response rate,[16]; children with progressive PN,74%
